Measured values from US6472418B1, “Non-peptide NK1 receptors antagonists” (Warner-Lambert Company, priority 1998, dated 2002).

Molecular target: T1, Human NK1 Receptor (Homo sapiens, UniProt P25103)
T1 construct: endogenous in cells; host or cells: Human lymphoma IM9 cells (whole cells)
Test: In Vitro Human NK1 Receptor Binding Assay ([125I]Bolton-Hunter substance P displacement, IM9 cells)
Conditions: Human lymphoma IM9 cells, [125I]Bolton-Hunter substance P; Table 3, array-synthesis products; read-out: IC50 (nM) hNK1
Procedure, shortened: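 Radioligand displacement on whole IM9 human lymphoma cells (2.5×10^6 cells/mL) using [125I]Bolton-Hunter substance P (0.05-0.1 nM), 50 min at 21° C in Tris pH 7.4/MnCl2 buffer with protease inhibitors. Non-specific binding defined by […] [Sar9, Met(O2)11] substance P. Filtration, gamma counting, iterative curve fitting.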

T1 sequence (P25103 whole entry): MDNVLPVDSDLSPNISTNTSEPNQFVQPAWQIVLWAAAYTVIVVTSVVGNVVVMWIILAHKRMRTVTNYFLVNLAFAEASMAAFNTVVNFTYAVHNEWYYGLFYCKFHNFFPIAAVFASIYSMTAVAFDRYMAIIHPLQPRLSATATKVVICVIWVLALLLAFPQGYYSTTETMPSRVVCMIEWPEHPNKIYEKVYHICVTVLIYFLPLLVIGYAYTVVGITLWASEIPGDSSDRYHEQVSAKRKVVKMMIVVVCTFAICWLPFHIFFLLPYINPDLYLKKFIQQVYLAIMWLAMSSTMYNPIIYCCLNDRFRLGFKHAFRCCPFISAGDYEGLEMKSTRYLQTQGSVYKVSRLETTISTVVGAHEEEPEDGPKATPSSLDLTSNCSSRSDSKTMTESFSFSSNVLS

IC50 [nM]	SMILES
22	O=C(NCc1ccccc1)C(Cc1c[nH]c2ccccc12)NCc1cc2ccccc2o1 (stereo not shown) [Example 254, 2-[(Benzofuran-2-ylmethyl)-amino]-N-benzyl-3-(1H-indol-3-yl)-propionamide]
9	COc1ccc(C(C)NC(=O)C(Cc2c[nH]c3ccccc23)NCc2cc3ccccc3o2)cc1 (stereo not shown) [Example 255, 2-[(Benzofuran-2-ylmethyl)-amino]-3-(1H-indol-3-yl)-N-[1-(4-methoxy-phenyl)-ethyl]-propionamide]
> 10000	O=C(NCc1ccccc1O)C(Cc1c[nH]c2ccccc12)NCc1cc2ccccc2o1 (stereo not shown) [Example 256, 2-[(Benzofuran-2-ylmethyl)-amino]-N-(2-hydroxy-benzyl)-3-(1H-indol-3-yl)-propionamide]
> 10000	CC(C)(CNC(=O)C(Cc1c[nH]c2ccccc12)NCc1cc2ccccc2o1)c1ccccc1 (stereo not shown) [Example 257, 2-[(Benzofuran-2-ylmethyl)-amino]-3-(1H-indol-3-yl)-N-(2-methyl-2-phenyl-propyl)-propionamide]
46	O=C(NCc1ccc(Cl)cc1)C(Cc1c[nH]c2ccccc12)NCc1cc2ccccc2o1 (stereo not shown) [Example 258, 2-[(Benzofuran-2-ylmethyl)-amino]-N-(4-chloro-benzyl)-3-(1H-indol-3-yl)-propionamide]
21	CCC(NC(=O)C(Cc1c[nH]c2ccccc12)NCc1cc2ccccc2o1)c1ccccc1 (stereo not shown) [Example 259, 2-[(Benzofuran-2-ylmethyl)-amino]-3-(1H-indol-3-yl)-N-(1-phenyl-propyl)-propionamide]
14	O=C(NCc1cccc([N+](=O)[O-])c1)C(Cc1c[nH]c2ccccc12)NCc1cc2ccccc2o1 (stereo not shown) [Example 260, 2-[(Benzofuran-2-ylmethyl)-amino]-3-(1H-indol-3-yl)-N-(3-nitro-benzyl)-propionamide]
406	O=C(NCc1ccco1)C(Cc1c[nH]c2ccccc12)NCc1cc2ccccc2o1 (stereo not shown) [Example 261, 2-[(Benzofuran-2-ylmethyl)-amino]-N-furan-2-ylmethyl-3-(1H-indol-3-yl)-propionamide]
86	O=C(NC1CCc2ccccc21)C(Cc1c[nH]c2ccccc12)NCc1cc2ccccc2o1 (stereo not shown) [Example 262, 2-[(Benzofuran-2-ylmethyl)-amino]-N-indan-1-yl-3-(1H-indol-3-yl)-propionamide]
9	O=C(NCc1cccc(Cl)c1)C(Cc1c[nH]c2ccccc12)NCc1cc2ccccc2o1 (stereo not shown) [Example 263, 2-[(Benzofuran-2-ylmethyl)-amino]-N-(3-chloro-benzyl)-3-(1H-indol-3-yl)-propionamide]
7	CC(NC(=O)C(Cc1c[nH]c2ccccc12)NCc1cc2ccccc2o1)c1ccc(Cl)cc1 (stereo not shown) [Example 264, 2-[(Benzofuran-2-ylmethyl)-amino]-N-[1(4-chloro-phenyl)-ethyl]-3-(1H-indol-3-yl)-propionamide]
328	CC(C)(NC(=O)C(Cc1c[nH]c2ccccc12)NCc1cc2ccccc2o1)c1ccccc1 (stereo not shown) [Example 265, 2-[(Benzofuran-2-ylmethyl)-amino]-3-(1H-indol-3-yl)-N-(1-methyl-1-phenyl-ethyl)-propionamide]
633	O=C(NCC1CC2CCC1C2)C(Cc1c[nH]c2ccccc12)NCc1cc2ccccc2o1 (stereo not shown) [Example 266, 2-[(Benzofuran-2-ylmethyl)-amino]-N-bicyclo[2.2.1]-hept-2-ylmethyl-3-(1H-indol-3-yl)-propionamide]
55	O=C(NCc1ccc2c(c1)OCO2)C(Cc1c[nH]c2ccccc12)NCc1cc2ccccc2o1 (stereo not shown) [Example 267, N-Benzo[1,3]-dioxol-5-ylmethyl-2-[(benzofuran-2-ylmethyl)-amino]-3-(1H-indol-3-yl)-propionamide]
10	O=C(NCc1ccc(F)c(F)c1)C(Cc1c[nH]c2ccccc12)NCc1cc2ccccc2o1 (stereo not shown) [Example 268, 2-[(Benzofuran-2-ylmethyl)-amino]-N-(3,4-difluoro-benzyl)-3-(1H-indol-3-yl)-propionamide]
> 10000	O=C(NC1CCCCC1O)C(Cc1c[nH]c2ccccc12)NCc1cc2ccccc2o1 (stereo not shown) [Example 270, 2-[(Benzofuran-2-ylmethyl)-amino]-N-(2-hydroxy-cyclohexyl)-3-(1H-indol-3-yl)-propionamide]
196	COc1ccc(CCNC(=O)C(Cc2c[nH]c3ccccc23)NCc2cc3ccccc3o2)cc1 (stereo not shown) [Example 271, 2-[(Benzofuran-2-ylmethyl)-amino]-3-(1H-indol-3-yl)-N-[2-(4-methoxy-phenyl)-ethyl]-propionamide]
> 10000	O=C(NC1CCC(O)CC1)C(Cc1c[nH]c2ccccc12)NCc1cc2ccccc2o1 (stereo not shown) [Example 273, 2-[(Benzofuran-2-ylmethyl)-amino]-N-(4-hydroxy-cyclohexyl)-3-(1H-indol-3-yl)-propionamide]
264	O=C(NCCc1ccccc1F)C(Cc1c[nH]c2ccccc12)NCc1cc2ccccc2o1 (stereo not shown) [Example 274, 2-[(Benzofuran-2-ylmethyl)-amino]-N-[2-(2-fluoro-phenyl)-ethyl]-3-(1H-indol-3-yl)-propionamide]

IC50 [nM]	SMILES
655	O=C(NC1CCCCC1)C(Cc1c[nH]c2ccccc12)NCc1cc2ccccc2o1 (stereo not shown) [Example 276, 2-[(Benzofuran-2-ylmethyl)-amino]-N-cyclohexyl-3-(1H-indol-3-yl)-propionamide]
2200	O=C(NC(CO)CC1CCCCC1)C(Cc1c[nH]c2ccccc12)NCc1cc2ccccc2o1 (stereo not shown) [Example 277, 2-[(Benzofuran-2-ylmethyl)-amino]-N-(2-cyclohexyl-1-hydroxymethyl-ethyl)-3-(1H-indol-3-yl)-propionamide]
2380	O=C(NCCCc1ccccc1)C(Cc1c[nH]c2ccccc12)NCc1cc2ccccc2o1 (stereo not shown) [Example 278, 2-[(Benzofuran-2-ylmethyl)-amino]-3-(1H-indol-3-yl)-N-(3-phenyl-propyl)-propionamide]
30	O=C(NCc1ccc(Cl)c(Cl)c1)C(Cc1c[nH]c2ccccc12)NCc1cc2ccccc2o1 (stereo not shown) [Example 279, 2-[(Benzofuran-2-ylmethyl)-amino]-N-(3,4-dichloro-benzyl)-3-(1H-indol-3-yl)-propionamide]
2540	O=C(NCCc1c[nH]c2ccccc12)C(Cc1c[nH]c2ccccc12)NCc1cc2ccccc2o1 (stereo not shown) [Example 280, 2-[(Benzofuran-2-ylmethyl)-amino]-3-(1H-indol-3-yl)-N-[2-(1H-indol-3-yl)-ethyl]-propionamide]
51	O=C(NCCc1ccc([N+](=O)[O-])cc1)C(Cc1c[nH]c2ccccc12)NCc1cc2ccccc2o1 (stereo not shown) [Example 281, 2-[(Benzofuran-2-ylmethyl)-amino]-3-(1H-indol-3-yl)-N-[2-(4-nitro-phenyl)-ethyl]-propionamide]
833	CC(Cc1ccc(Cl)cc1)NC(=O)C(Cc1c[nH]c2ccccc12)NCc1cc2ccccc2o1 (stereo not shown) [Example 282, 2-[(Benzofuran-2-ylmethyl)-amino]-N-[2-(4-chloro-phenyl)-1-methyl-ethyl]-3-(1H-indol-3-yl)-propionamide]
420	O=C(NCc1ccc(C(F)(F)F)cc1)C(Cc1c[nH]c2ccccc12)NCc1cc2ccccc2o1 (stereo not shown) [Example 283, 2-[(Benzofuran-2-ylmethyl)-amino]-3-(1H-indol-3-yl)-N-(4-trifluoromethyl-benzyl)-propionamide]
62	O=C(NCCc1ccc(F)cc1)C(Cc1c[nH]c2ccccc12)NCc1cc2ccccc2o1 (stereo not shown) [Example 284, 2-[(Benzofuran-2-ylmethyl)-amino]-N-[2-(4-fluoro-phenyl)-ethyl]-3-(1H-indol-3-yl)-propionamide]
> 10000	O=C(O)C1CCC(CNC(=O)C(Cc2c[nH]c3ccccc23)NCc2cc3ccccc3o2)CC1 (stereo not shown) [Example 286, 4-{[2-[(Benzofuran-2-ylmethyl)-amino]-3-(1H-indol-3-yl)-propionylamino]-methyl}-cyclohexanecarboxylic acid]
35	N#CC(NC(=O)C(Cc1c[nH]c2ccccc12)NCc1cc2ccccc2o1)c1ccccc1 (stereo not shown) [Example 287, 2-[(Benzofuran-2-ylmethyl)-amino]-N-(cyano-phenyl-methyl)-3-(1H-indol-3-yl)-propionamide]
136	O=C(NCCc1ccc(Cl)cc1)C(Cc1c[nH]c2ccccc12)NCc1cc2ccccc2o1 (stereo not shown) [Example 288, 2-[(Benzofuran-2-ylmethyl)-amino]-N-[2-(4-chloro-phenyl)-ethyl]-3-(1H-indol-3-yl)-propionamide]
209	O=C(NC(CO)Cc1ccccc1)C(Cc1c[nH]c2ccccc12)NCc1cc2ccccc2o1 (stereo not shown) [Example 289, 2-[(Benzofuran-2-ylmethyl)-amino]-N-(1-hydroxymethyl-2-phenyl-ethyl)-3-(1H-indol-3-yl)-propionamide]
8	CC(NC(=O)C(Cc1c[nH]c2ccccc12)NCc1cc2ccccc2o1)c1ccc(Br)cc1 (stereo not shown) [Example 290, 2-[(Benzofuran-2-ylmethyl)-amino]-N-[1-(4-bromo-phenyl)-ethyl]-3-(1H-indol-3-yl)-propionamide]
1340	COc1cccc(CCNC(=O)C(Cc2c[nH]c3ccccc23)NCc2cc3ccccc3o2)c1 (stereo not shown) [Example 291, 2-[(Benzofuran-2-ylmethyl)-amino]-3-(1H-indol-3-yl)-N-[2-(3-methoxy-phenyl)-ethyl]-propionamide]
1130	O=C(NCc1ccccc1C(F)(F)F)C(Cc1c[nH]c2ccccc12)NCc1cc2ccccc2o1 (stereo not shown) [Example 292, 2-[(Benzofuran-2-ylmethyl)-amino]-3-(1H-indol-3-yl)-N-(2-trifluoromethyl-benzyl)-propionamide]
55	O=C(NCCc1cccc(F)c1)C(Cc1c[nH]c2ccccc12)NCc1cc2ccccc2o1 (stereo not shown) [Example 293, 2-[(Benzofuran-2-ylmethyl)-amino]-N-[2-(3-fluoro-phenyl)-ethyl]-3-(1H-indol-3-yl)-propionamide]
58	CC(NC(=O)C(Cc1c[nH]c2ccccc12)NCc1cc2ccccc2o1)C1CCCCC1 (stereo not shown) [Example 294, 2-[(Benzofuran-2-ylmethyl)-amino]-N-(1-cyclohexyl-ethyl)-3-(1H-indol-3-yl)-propionamide]
